Measured values published in patent publication US10124035B2, “DISC-1 pathway activators in the control of neurogenesis” (Massachusetts Institute of Technology, priority 2008, dated 2018).

System: neural progenitors in embryonic mouse brains
Assay: In utero electroporation of shRNA into E13 embryonic mouse brains
Type: in vivo
Source text: • Mice. Swiss Webster pregnant female mice were purchased from Taconic (Hudson, N.Y.). • Cell Culture. AHPs were kindly provided by Dr. Gage (Lie, D. C. et al. Wnt signaling to regulates adult hippocampal neurogenesis. Nature 437, 1370-5 (2005)) and cultured under conditions described previously (Palmer, T. D., Takahashi, J. & Gage, F. H. The adult rat hippocampus contains primordial neural stem cells. Mol Cell Neurosci 8, 389-404 (1997)). Primary neural progenitors were isolated from E14 mouse embryos and cultured as described previously (Sanada, K. & Tsai, L. H. G protein betagamma subunits and AGS3 control spindle orientation and asymmetric cell fate of cerebral cortical progenitors. Cell 122, 119-31 (2005)). N2a and 293T cells were cultured in DMEM medium containing 10% FBS, L-glutamine, and penicillin/streptomycin. Wnt3a expressing L cells and untransfected L cells were obtained from ATCC (Manassas, Va.). Wnt3a conditional medium was produced according to the ATCC protocol. To induce AHP differentiation, FGF2 was removed from the culture medium and 1 μM retinoic acid/1% FBS was added to the medium for 4 days. • Reagents. Recombinant Wnt3a protein was obtained from Chemicon (Rosemont, Ill.). FGF2 was obtained from PeproTech (Rocky Hill, N.J.). Recombinant GST-GSK3β was obtained from Active Motif (Carlsbad, Calif.). Recombinant GST-β-catenin and GST-axin were obtained from Millipore (Billerica, Mass.). The GSK313 inhibitor, SB-216763, AR-A104418 and His-GSK3β, were obtained from Sigma-Aldrich (Sigma-Aldrich, St. Louis, Mo.). L803-MTS was obtained from Calbiochem (San Diego, Calif.). GST-AKT1 was obtained from Cell Signaling (Beverly, Mass.). GST-CASK-1 (CASK fragment from 316-415aa), GST-CASK-2 (CASK fragment from 777-974aa), and GST-p25 proteins were kindly provided by Dr. B. A. Samuels. Mouse DISC1 peptidel (40-78aa: GYMRSTAGSG IGFLSPAVGMPHPSSAG LTGQQSQHSQS; SEQ ID NO: 1) and Mouse DISC1 peptide 2 (195-238aa, […] GERGEAEGCLPSREAE; SEQ ID NO: 2) were synthesized by Chi Scientific (Maynard, Mass.). • Antibodies. The primary antibodies used in this study were the following: rabbit anti-DISC1 C-terminal antibody, mouse and rabbit anti-GFP antibodies (Invitrogen, Carlsbad, Calif.); affinity purified rabbit anti-DISC1 antibody (Novus, Littleton, Colo.) for immunohistochemistry; mouse anti-FLAG and mouse anti-Actin antibody; mouse anti-GSK3β antibody, mouse anti-β-catenin antibody, mouse anti-pY216 GSK3β antibody, and mouse anti-nestin antibody (BD Biosciences, San Diego, Calif.); rabbit anti-[…] β-catenin antibody, rabbit anti-pS9 GSK3β antibody, and mouse anti-cyclin to D1 antibody (Cell Signaling); mouse anti-Dv12 antibody, mouse anti-HA antibody, mouse anti-GST antibody, mouse anti-ubiquitin antibody, and rabbit anti-β-catenin antibody (Santa Cruz, Santa Cruz, Calif.); mouse Tuj-1 antibody (BABCO, Harrisburg, Pa.); mouse anti-BrdU antibody (DakoCytomation, Glostrup, Denmark); guinea pig anti-doublecortin antibody (Chemicon, Rosemont, Ill.); chicken anti-GFP antibody (Ayes Labs, Tigard, Oreg.); rabbit anti-pS10 Histone H3 antibody (Upstate, Lake Placid, N.Y.). • Constructs. The sequences for shRNAs targeting DISC1 are as follows: control shRNA: 5′-CGGCTGAAACAAGAGTTGG-3′ (SEQ ID NO:3); DISC1 shRNA-1: 5′-GGCAAACACTGTGA AGT GC-3′ (SEQ ID NO:4); DISC1 shRNA-2: 5′-[…]-3′ (SEQ ID NO:5)(Kamiya A. et al. A schizophrenia-associated mutation of DISC1 perturbs cerebral cortex development. Nat. Cell Biol 7, 1167-78 (2005)). DISC1 shRNA-1 recognizes both rat and mouse DISC1. […]

[1] = electroporated at E13, analyzed 3 days later

Substance: DISC1 shRNA-1: shRNA targeting rat and mouse DISC1, SEQ ID NO:4, in pLentiLox 3.7 vector (GGCAAACACTGTGAAGTGC)
- BrdU labeling (BrdU 2 hours prior to collection): 18.2±2.2%
- cell cycle exit index (electroporated E13, BrdU at E15, collected E16): 53.2±6.1%
- GFP+Dcx+ cells (electroporated E13, sacrificed E16, SVZ): 36.7±4.2%
- GFP positive cells in the VZ/SVZ [1]: 13%
- GFP positive cells in the cortical plate [1]: 59.6%
- mitotic index (pH3, electroporated E13, sacrificed E15): 3.8±0.8%
